What is called melting point is the temperature of the solid-liquid transition.

In turn, `CCc1ccc(/C=C2\CN(S(=O)(=O)c3ccc(C)cc3)C/C(=C\c3ccc(CC)cc3)C2=O)cc1` [3b, 3,5-Bis(4-etbylbenzylidene)-1-tosylpiperidin-4-one] displayed a melting point of 165 °C.
Consider `CCCc1ccc(/C=C2\CN(S(=O)(=O)c3ccc(C)cc3)C/C(=C\c3ccc(CCC)cc3)C2=O)cc1` [3c, 3,5-Bis(4-propylbenzylidene)-1-tosylpiperidin-4-one], for which the melting point came out at 157 °C.
The figure for `Cc1ccc(/C=C2\CN(S(=O)(=O)c3ccc(C)cc3)C/C(=C\c3ccc(C)cc3)C2=O)cc1` [3d, 3,5-Bis(4-methylbenzylidene)-1-tosylpiperidin-4-one] is 187 °C; for `Cc1ccc(S(=O)(=O)N2C/C(=C\c3ccc(Cl)cc3)C(=O)/C(=C/c3ccc(Cl)cc3)C2)cc1` [3e, 3,5-Bis(4-chlorobenzylidene)-1-tosylpiperidin-4-one] it is 209 °C; for `COc1ccc(/C=C2\CN(S(=O)(=O)c3ccc(C)cc3)C/C(=C\c3ccc(OC)cc3)C2=O)cc1` [3f, 3,5-Bis(4-methoxybenzylidene)-1-tosylpiperidin-4-one] it is 183 °C.
The figure for `Cc1ccc(S(=O)(=O)N2C/C(=C\c3ccc(C(C)(C)C)cc3)C(=O)/C(=C/c3ccc(C(C)(C)C)cc3)C2)cc1` [3g, 3,5-Bis(4-tert-butylbenzylidene)-1-tosylpiperidin-4-one] is 220 °C; for `CCCCc1ccc(/C=C2\CN(S(=O)(=O)c3ccc(C)cc3)C/C(=C\c3ccc(CCCC)cc3)C2=O)cc1` [3h, 3,5-Bis(4-butylbenzylidene)-1-tosylpiperidin-4-one] it is 148 °C.
`Cc1ccc(S(=O)(=O)N2C/C(=C\c3ccc(C(C)C)cc3)C(=O)/C(=C/c3ccc(C(C)C)cc3)C2)cc1` [3i, 3,5-Bis(4-isopropylbenzylidene)-1-tosylpiperidin-4-one]: the melting point is 177 °C.
The same measure for `Cc1ccc(/C=C2\CN(S(=O)(=O)c3ccccc3)C/C(=C\c3ccc(C)cc3)C2=O)cc1` [4a, 3,5-Bis(4-methylbenzylidene)-1-(phenylsulfonyl)piperidin-4-one]: 211 °C.
Compound `CCc1ccc(/C=C2\CN(S(=O)(=O)c3ccccc3)C/C(=C\c3ccc(CC)cc3)C2=O)cc1` [4b, 3,5-Bis(4-ethylbenzylidene)-1-(phenylsulfonyl)piperidin-4-one] yielded a melting point of 165 °C.
`CC(C)c1ccc(/C=C2\CN(S(=O)(=O)c3ccccc3)C/C(=C\c3ccc(C(C)C)cc3)C2=O)cc1` [4c, 3,5-Bis(4-isopropylbenzylidene)-1-(phenylsulfonyl)piperidin-4-one] came in with a melting point of 170 °C.
`CCCc1ccc(/C=C2\CN(S(=O)(=O)c3ccccc3)C/C(=C\c3ccc(CCC)cc3)C2=O)cc1` [4d, 1-(Phenylsulfonyl)-3,5-bis(4-propylbenzylidene)piperidin-4-one]: the melting point is 153 °C.
The figure for `CC(C)(C)c1ccc(/C=C2\CN(S(=O)(=O)c3ccccc3)C/C(=C\c3ccc(C(C)(C)C)cc3)C2=O)cc1` [4f, 3,5-Bis(4-tert-butylbenzylidene)-1-(phenylsulfonyl)piperidin-4-one] is 194 °C; for `CCCCc1ccc(/C=C2\CN(S(=O)(=O)c3ccccc3)C/C(=C\c3ccc(CCCC)cc3)C2=O)cc1` [4g, 3,5-Bis(4-butylbenzylidene)-1-(phenylsulfonyl)piperidin-4-one] it is 134 °C; for `COc1ccc(/C=C2\CN(S(=O)(=O)c3ccccc3)C/C(=C\c3ccc(OC)cc3)C2=O)cc1` [4h, 3,5-Bis(4-methoxybenzylidene)-1-(phenylsulfonyl)piperidin-4-one] it is 217 °C.
Regarding `O=C1/C(=C/c2ccc(F)cc2)CN(S(=O)(=O)c2ccccc2)C/C1=C\c1ccc(F)cc1` [4j, 3,5-Bis(4-fluorobenzylidene)-1-(phenylsulfonyl)piperidin-4-one], the melting point stood at 181 °C.
Take `Cc1ccc(/C=C2\CN(Cc3ccccc3)C/C(=C\c3ccc(C)cc3)C2=O)cc1` [5a, 1-Benzyl-3,5-bis(4-methylbenzylidene)piperidin-4-one]: the melting point was 170 °C.
The same measure for `CCc1ccc(/C=C2\CN(Cc3ccccc3)C/C(=C\c3ccc(CC)cc3)C2=O)cc1` [5c, 1-Benzyl-3,5-bis-(4-ethyl-benzylidene)-piperidin-4-one]: 119 °C.
Compound `CC(C)c1ccc(/C=C2\CN(Cc3ccccc3)C/C(=C\c3ccc(C(C)C)cc3)C2=O)cc1` [5e, 1-Benzyl-3,5-bis(4-isopropylbenzylidene)piperidin-4-one] gave a melting point of 157 °C.
The figure for `CCCCc1ccc(/C=C2\CN(Cc3ccccc3)C/C(=C\c3ccc(CCCC)cc3)C2=O)cc1` [5f, 1-Benzyl-3,5-bis(4-butylbenzylidene)piperidin-4-one] is 104 °C.
The same measure for `CC(C)(C)c1ccc(/C=C2\CN(Cc3ccccc3)C/C(=C\c3ccc(C(C)(C)C)cc3)C2=O)cc1` [5g, 1-Benzyl-3,5-bis(4-tert-butylbenzylidene)piperidin-4-one]: 167 °C; for `O=C1/C(=C/c2ccc(F)cc2)CN(Cc2ccccc2)C/C1=C\c1ccc(F)cc1` [5j, 1-Benzyl-3,5-bis(4-fluorobenzylidene)piperidin-4-one]: 159 °C.
As to `CCN1C/C(=C\c2ccc(Br)cc2)C(=O)/C(=C/c2ccc(Br)cc2)C1` [6a, 3,5-Bis-(4-bromo-benzylidene)-1-ethyl-piperidin-4-one], the melting point was determined as 178 °C.
The figure for `CCN1C/C(=C\c2ccc(F)cc2)C(=O)/C(=C/c2ccc(F)cc2)C1` [6c, 1-Ethyl-3,5-bis(4-fluorobenzylidene)piperidin-4-one] is 114 °C; for `CCc1ccc(/C=C2\CN(CC)C/C(=C\c3ccc(CC)cc3)C2=O)cc1` [6e, 1-Ethyl-3,5-bis(4-ethylbenzylidene)piperidin-4-one] it is 178 °C; for `CCN1C/C(=C\c2ccc(C(C)(C)C)cc2)C(=O)/C(=C/c2ccc(C(C)(C)C)cc2)C1` [6i, 3,5-Bis(4-tert-butylbenzylidene)-1-ethylpiperidin-4-one] it is 111 °C.
The same measure for `C#CCN1CC(=Cc2ccc(C(C)C)cc2)C(=O)C(=Cc2ccc(C(C)C)cc2)C1` [10c, 3,5-Bis(4-isopropylbenzylidene)-1-(prop-2-ynyl)piperidin-4-one]: 106 °C; for `C#CCN1CC(=Cc2ccc(C(C)(C)C)cc2)C(=O)C(=Cc2ccc(C(C)(C)C)cc2)C1` [10d, 3,5-Bis(4-tert-butylbenzylidene)-1-(prop-2-ynyl)piperidin-4-one]: 182 °C; for `C#CCN1CC(=Cc2ccc(CCC)cc2)C(=O)C(=Cc2ccc(CCC)cc2)C1` [10e, 1-(Prop-2-ynyl)-3,5-bis(4-propylbenzylidene)piperidin-4-one]: 96 °C.
The same measure for `CCCn1cc(CN2CC(=Cc3ccc(C)cc3)C(=O)C(=Cc3ccc(C)cc3)C2)nn1` [11a, 3,5-Bis(4-methylbenzylidene)-1-((1-propyl-1H-1,2,3-triazol-4-yl)methyl)piperidin-4-one]: 165 °C; for `CCCCCn1cc(CN2CC(=Cc3ccc(C)cc3)C(=O)C(=Cc3ccc(C)cc3)C2)nn1` [11c, 3,5-Bis(4-methylbenzylidene)-1-((1-pentyl-1H-1,2,3-triazol-4-yl)methyl)piperidin-4-one]: 169 °C; for `CCCn1cc(CN2CC(=Cc3ccc(CC)cc3)C(=O)C(=Cc3ccc(CC)cc3)C2)nn1` [12a, 3,5-Bis(4-ethylbenzylidene)-1-((1-propyl-1H-1,2,3-triazol-4-yl)methyl)piperidin-4-one]: 149 °C.
In the case of `CCCCn1cc(CN2CC(=Cc3ccc(CC)cc3)C(=O)C(=Cc3ccc(CC)cc3)C2)nn1` [12b, 1-((1-Butyl-1H-1,2,3-triazol-4-yl)methyl)-3,5-bis(4-ethylbenzylidene)piperidin-4-one], the melting point came to 150 °C.
The same measure for `CCCCCn1cc(CN2CC(=Cc3ccc(CC)cc3)C(=O)C(=Cc3ccc(CC)cc3)C2)nn1` [12c, 3,5-Bis(4-ethylbenzylidene)-1-((1-pentyl-1H-1,2,3-triazol-4-yl)methyl)piperidin-4-one]: 156 °C.
On to `CCCn1cc(CN2CC(=Cc3ccc(C(C)C)cc3)C(=O)C(=Cc3ccc(C(C)C)cc3)C2)nn1` [13a, 3,5-Bis(4-isopropylbenzylidene)-1-((1-propyl-1H-1,2,3-triazol-4-yl)methyl)piperidin-4-one], for which the melting point was 144 °C.
Turning to `CCCCn1cc(CN2CC(=Cc3ccc(C(C)C)cc3)C(=O)C(=Cc3ccc(C(C)C)cc3)C2)nn1` [13b, 1-((1-Butyl-1H-1,2,3-triazol-4-yl)methyl)-3,5-bis(4-isopropylbenzylidene)piperidin-4-one], the melting point was 145 °C.
The same measure for `CCCCCn1cc(CN2CC(=Cc3ccc(C(C)C)cc3)C(=O)C(=Cc3ccc(C(C)C)cc3)C2)nn1` [13c, 3,5-Bis(4-isopropylbenzylidene)-1-((1-pentyl-1H-1,2,3-triazol-4-yl)methyl)piperidin-4-one]: 143 °C.
The figure for `CCCn1cc(CN2CC(=Cc3ccc(C(C)(C)C)cc3)C(=O)C(=Cc3ccc(C(C)(C)C)cc3)C2)nn1` [14a, 3,5-Bis(4-tert-butylbenzylidene)-1-((1-propyl-1H-1,2,3-triazol-4-yl)methyl)piperidin-4-one] is 182 °C; for `CCCCn1cc(CN2CC(=Cc3ccc(C(C)(C)C)cc3)C(=O)C(=Cc3ccc(C(C)(C)C)cc3)C2)nn1` [14b, 1-[(1-Butyl-1H-1,2,3-triazol-4-yl)methyl]-3,5-bis(4-tert-butylbenzylidene)piperidin-4-one] it is 145 °C.
Compound `CCCCCn1cc(CN2CC(=Cc3ccc(C(C)(C)C)cc3)C(=O)C(=Cc3ccc(C(C)(C)C)cc3)C2)nn1` [14c, 3,5-Bis(4-tert-butylbenzylidene)-1-[(1-pentyl-1H-1,2,3-triazol-4-yl)methyl]piperidin-4-one] showed a melting point of 146 °C.
`CCCc1ccc(C=C2CN(Cc3cn(CCC)nn3)CC(=Cc3ccc(CCC)cc3)C2=O)cc1` [15a, 1-[(1-Propyl-1H-1,2,3-triazol-4-yl)methyl]-3,5-bis(4-propylbenzylidene)piperidin-4-one] yielded a melting point of 133 °C.

Values taken from US9884825B2, “Curcumin analogs and methods of making and using thereof” (Georgia State University Research Foundation, Inc., priority 2012, dated 2018).
